ChEMBL document CHEMBL3421624, “Design and Synthesis of Antitumor Heck-Coupled Sclareol Analogues: Modulation of BH3 Family Members by SS-12 in Autophagy and Apoptotic Cell Death” (J Med Chem, 2015)
Active and inactive are the calls of the source. The rule behind the calls is not given here.

How the values were obtained:
CCRF S-180 [1] = assay: Antitumor activity against mouse S180 solid tumor cells implanted in Swiss albino mouse assessed as tumor growth inhibition at 22 mg/kg, ip measured on day 13; type: functional; conditions: CCRF S-180, ip, 312 h, route intraperitoneal, read-out: TGI
Mus musculus [2] = assay: Toxicity in mouse S180 solid tumor cells implanted Swiss albino mouse assessed as mouse mortality at 22 mg/kg, ip measured on day 13; type: organism-based; set-up: dose 22 mg/kg, route intraperitoneal; conditions: in vivo
CCRF S-180 [3] = assay: Antitumor activity against mouse S180 ascites cells implanted in Swiss albino mouse assessed as tumor growth inhibition at 22 mg/kg, ip measured on day 12; type: functional; conditions: CCRF S-180, ip, 288 h, route intraperitoneal, read-out: TGI
Mus musculus [4] = assay: Toxicity in mouse S180 ascites cells implanted Swiss albino mouse assessed as mouse mortality at 22 mg/kg, ip measured on day 13; type: organism-based; set-up: dose 22 mg/kg, route intraperitoneal; conditions: in vivo
PC-3 [5] = assay: Induction of autophagy in human PC3 cells assessed as increase LC3 intracellular localization at 100 nM to 300 nM after 24 hrs by immunocytochemistry; type: functional, cell-based
PC-3 [6] = assay: Induction of autophagy in human PC3 cells assessed as increase in conversion of LC3-I to LC3-II at 0.1 to 0.3 uM after 24 hrs by Western blotting method; type: functional, cell-based
PC-3 [7] = assay: Induction of autophagy in human PC3 cells assessed as reduction in SQSTM1/P62 protein levels at 0.1 to 0.3 uM after 24 hrs by Western blotting method; type: functional, cell-based
PC-3 [8] = assay: Induction of autophagy in human PC3 cells assessed as increase in Beclin-1 protein levels at 0.1 to 0.3 uM after 24 hrs by Western blotting method; type: functional, cell-based
PC-3 [9] = assay: Inhibition of Akt S473 phosphorylation in human PC3 cells at 0.1 to 0.3 uM after 24 hrs by Western blotting method; type: cell-based
PC-3 [10] = assay: Inhibition of Akt in human PC3 cells assessed as reduction in mTOR S2448 phosphorylation at 0.1 to 0.3 uM after 24 hrs by Western blotting method; type: cell-based
[11] = Effect on total Akt protein levels in human PC3 cells at 0.1 to 0.3 uM after 24 hrs by Western blotting method; type: ADME, cell-based; conditions: pc-3, 24 h
[12] = Effect on total mTOR protein levels in human PC3 cells at 0.1 to 0.3 uM after 24 hrs by Western blotting method; type: ADME, cell-based; conditions: pc-3, 24 h
[13] = Reduction in Bcl-2 protein expression in human PC3 cells at 0.1 to 0.3 uM after 24 hrs by Western blotting method; type: functional, cell-based; conditions: PC-3
[14] = Cytotoxicity against human PC3 cells after 48 hrs by MTT assay; type: functional, cell-based; conditions: PC-3, 48 h
A549 = assay: Cytotoxicity against human A549 cells after 48 hrs by MTT assay; type: functional, cell-based; conditions: A549, 48 h
HeLa = assay: Cytotoxicity against human HeLa cells after 48 hrs by MTT assay; type: functional, cell-based
PC-3 [15] = assay: Induction of autophagy in human PC3 cells assessed as acidic vesicular organelles formation at 100 to 300 nM after 24 hrs by acridine orange staining based fluorescence microscopy; type: functional, cell-based
PC-3 [16] = assay: Induction of autophagy in human PC3 cells assessed as autophagosomes formation at 100 to 300 nM after 24 hrs by acridine orange staining based fluorescence microscopy; type: functional, cell-based
PC-3 [17] = assay: Induction of apoptosis in human PC3 cells assessed as nuclear condensation at 100 to 300 nM after 24 hrs by DAPI staining assay; type: functional, cell-based
PC-3 [18] = assay: Induction of apoptosis in human PC3 cells assessed as membrane blebbing at 100 to 300 nM after 24 hrs by DAPI staining assay; type: functional, cell-based
PC-3 [19] = assay: Induction of autophagy in human PC3 cells at 100 to 300 nM after 24 hrs by MDC staining based fluorescence microscopy; type: functional, cell-based
PC-3 [20] = assay: Induction of autophagy in human PC3 cells at 100 to 300 nM after 24 hrs by acridine orange staining based fluorescence microscopy; type: functional
PC-3 [21] = assay: Induction of autophagy in human PC3 cells assessed as LC3 protein accumulation in autophagosomes after 24 hrs by fluorescence microscopy; type: functional, cell-based
PC-3 [22] = assay: Induction of autophagy in human PC3 cells assessed as increase in punctate EGFP-LC3 pattern in autophagosomes at 100 nM to 300 nM after 24 hrs by fluorescence microscopy; type: functional, cell-based
PC-3 [23] = assay: Induction of apoptosis in human PC3 cells assessed as caspase-3 cleavage at 0.1 to 0.3 uM after 24 hrs by Western blotting method; type: functional, cell-based
PC-3 [24] = assay: Induction of apoptosis in human PC3 cells assessed as increase in Annexin-V positive cells at 0.1 to 0.3 uM after 24 hrs; type: functional, cell-based
PC-3 [25] = assay: Induction of apoptosis in human PC3 cells assessed as caspase-3 cleavage at 300 nM after 24 hrs by Western blotting method; type: functional, cell-based
PC-3 [26] = assay: Induction of autophagy in human PC3 cells at 300 nM pre-treated with 5 mM autophagy inhibitor 3-MA for 1 hr before compound exposure for 24 hrs by acridine orange staining based fluorescence microscopy; type: functional, cell-based
PC-3 [27] = assay: Induction of autophagy in human PC3 cells at 300 nM pre-treated with 20 uM apoptosis inhibitor z-VAD-fmk for 1 hr before compound exposure for 24 hrs by acridine orange staining based fluorescence microscopy; type: functional, cell-based
PC-3 [28] = assay: Induction of apoptosis in human PC3 cells at 300 nM pre-treated with 5 mM autophagy inhibitor 3-MA for 1 hr before compound exposure for 24 hrs by DAPI staining method; type: functional, cell-based
PC-3 [29] = assay: Induction of apoptosis in human PC3 cells at 300 nM pre-treated with 20 uM apoptosis inhibitor z-VAD-fmk for 1 hr before compound exposure for 24 hrs by DAPI staining method; type: functional, cell-based
PC-3 [30] = assay: Increase in autophagy in human PC3 cells at 300 nM pre-treated with 20 uM apoptosis inhibitor z-VAD-fmk for 1 hr before compound exposure for 24 hrs by acridine orange staining based fluorescence microscopy; type: functional, cell-based
PC-3 [31] = assay: Increase in PARP-cleavage in human PC3 cells at 0.3 uM in presence of Beclin-1 siRNA after 24 hrs by immunoblotting method; type: functional, cell-based
PC-3 [32] = assay: Induction of autophagy in human PC3 cells over-expressing Bcl-2 at 300 nM pre-treated with 20 uM apoptosis inhibitor z-VAD-fmk for 1 hr before compound exposure for 24 hrs by acridine orange staining based fluorescence microscopy; type: functional, cell-based
PC-3 [33] = assay: Induction of apoptosis in human PC3 cells over-expressing Bcl-2 at 300 nM pre-treated with 20 uM apoptosis inhibitor z-VAD-fmk for 1 hr before compound exposure for 24 hrs by DAPI staining method; type: functional, cell-based
PC-3 [34] = assay: Induction of autophagy in human PC3 cells over-expressing Bcl-2 at 300 nM pre-treated with 5 mM autophagy inhibitor 3-MA for 1 hr before compound exposure for 24 hrs by acridine orange staining based fluorescence microscopy; type: functional, cell-based
PC-3 [35] = assay: Induction of autophagy in human PC3 cells over-expressing DS-Red-Beclin-1 at 300 nM pre-treated with 20 uM apoptosis inhibitor z-VAD-fmk for 1 hr before compound exposure for 24 hrs by acridine orange staining based fluorescence microscopy; type: functional, cell-based
CCRF S-180 [36] = assay: Antitumor activity against mouse S180 solid tumor cells implanted in Swiss albino mouse assessed as tumor growth inhibition at 5 mg/kg, ip measured on day 13; type: functional; conditions: CCRF S-180, ip, 312 h, route intraperitoneal, read-out: TGI
CCRF S-180 [37] = assay: Antitumor activity against mouse S180 solid tumor cells implanted in Swiss albino mouse assessed as tumor growth inhibition at 10 mg/kg, ip measured on day 13; type: functional; conditions: CCRF S-180, ip, 312 h, route intraperitoneal, read-out: TGI
Mus musculus [38] = assay: Toxicity in mouse S180 solid tumor cells implanted Swiss albino mouse assessed as mouse mortality at 5 mg/kg, ip measured on day 13; type: organism-based; set-up: dose 5 mg/kg, route intraperitoneal; conditions: in vivo
Mus musculus [39] = assay: Toxicity in mouse S180 solid tumor cells implanted Swiss albino mouse assessed as mouse mortality at 10 mg/kg, ip measured on day 13; type: organism-based; set-up: dose 10 mg/kg, route intraperitoneal; conditions: in vivo
CCRF S-180 [40] = assay: Antitumor activity against mouse S180 ascites cells implanted in Swiss albino mouse assessed as tumor growth inhibition at 5 mg/kg, ip measured on day 12; type: functional; conditions: CCRF S-180, ip, 288 h, route intraperitoneal, read-out: TGI
CCRF S-180 [41] = assay: Antitumor activity against mouse S180 ascites cells implanted in Swiss albino mouse assessed as tumor growth inhibition at 10 mg/kg, ip measured on day 12; type: functional; conditions: CCRF S-180, ip, 288 h, route intraperitoneal, read-out: TGI
Mus musculus [42] = assay: Toxicity in mouse S180 ascites cells implanted Swiss albino mouse assessed as mouse mortality at 5 mg/kg, ip measured on day 13; type: organism-based; set-up: dose 5 mg/kg, route intraperitoneal; conditions: in vivo
Mus musculus [43] = assay: Toxicity in mouse S180 ascites cells implanted Swiss albino mouse assessed as mouse mortality at 10 mg/kg, ip measured on day 13; type: organism-based; set-up: dose 10 mg/kg, route intraperitoneal; conditions: in vivo

SMILES: O=c1[nH]cc(F)c(=O)[nH]1 [FLUOROURACIL]
- inhibition in vivo at 22 mg/kg (CCRF S-180 [1]): 52.5%
- Activity (Mus musculus [2]): Non-toxic
- inhibition in vivo at 22 mg/kg (CCRF S-180 [3]): 96.9%
- Activity (Mus musculus [4]): Non-toxic

SMILES: CC1(C)CCC[C@]2(C)[C@@H](CC[C@@](C)(O)/C=C/c3ccc(F)cc3)[C@](C)(O)CC[C@@H]12
- Activity (PC-3 [5]): Active
- Activity (PC-3 [6]): Dose-dependent effect
- Activity (PC-3 [7]): Dose-dependent effect
- Activity (PC-3 [8]): Dose-dependent effect
- inhibition (PC-3 [9]): Active
- inhibition (PC-3 [10]): Active
- Activity [11]: Non-toxic
- Activity [12]: Non-toxic
- Activity [13]: Dose-dependent effect
- IC50 [14]: 0.082 µM
- IC50 (A549): 3.1 µM
- IC50 (HeLa): 3.46 µM
- Activity (PC-3 [15]): Active
- Activity (PC-3 [16]): Active
- Activity (PC-3 [17]): Active
- Activity (PC-3 [18]): Active
- Activity (PC-3 [19]): Active
- Activity (PC-3 [20]): Active
- Activity (PC-3 [21]): Active
- Activity (PC-3 [22]): Active
- Activity (PC-3 [23]): Active
- Activity (PC-3 [24]): Active
- Activity (PC-3 [25]): Active
- Activity (PC-3 [26]): inactive
- Activity (PC-3 [27]): inactive
- Activity (PC-3 [28]): inactive
- Activity (PC-3 [29]): inactive
- Activity (PC-3 [30]): Active
- Activity (PC-3 [31]): inactive
- Activity (PC-3 [32]): inactive
- Activity (PC-3 [33]): inactive
- Activity (PC-3 [34]): Active
- Activity (PC-3 [35]): Active
- inhibition in vivo at 5 mg/kg (CCRF S-180 [36]): 32.5%
- inhibition in vivo at 10 mg/kg (CCRF S-180 [37]): 39.8%
- Activity (Mus musculus [38]): Non-toxic
- Activity (Mus musculus [39]): Non-toxic
- inhibition in vivo at 5 mg/kg (CCRF S-180 [40]): 64.7%
- inhibition in vivo at 10 mg/kg (CCRF S-180 [41]): 74.9%
- Activity (Mus musculus [42]): Non-toxic
- Activity (Mus musculus [43]): Non-toxic
